Data: patent US20200368322A1, “METHODS OF IDENTIFYING AND USING AGENTS FOR TREATING DISEASES ASSOCIATED WITH INTESTINAL BARRIER DYSFUNCTION” (Yeda Research and Development Co. Ltd., priority 2018, published 2020)

Assays:
Caco-2 cells = assay: In vitro barrier assessment: ZO-1 staining and junction tortuosity of Caco-2 cells treated with glucose; format: cell-based; conditions: glucose plus 2-DG
Protocol: Caco-2 cells were purchased from ATCC. Cells were routinely grown in regular tissue culture medium (DMEM, 10% FCS, penicillin/streptomycin, GlutaMAX, 1 g/l glucose). For experiments, cells were seeded onto 96-well glass-bottom plates coated with fibronectin 25 μg/ml 70 000 cells/well and allowed to grow for 48 hours to form confluent monolayer before treatment with indicated concentration of glucose for indicated time period. […] Tight junctions labeling was performed with primary anti-ZO-1 mouse monoclonal antibodies (BD Transduction Laboratories) 1.25 μg/ml and secondary Alexa Fluor 488 goat anti-mouse antibodies (Invitrogen) 10 μg/ml. […] Cell images were segmented using Morphological Segmentation ImageJ plug-in and junction tortuosity was calculated as a ratio between junction length and Euclidian distance between its ends.
Hyperglycemia Reprograms Intestinal Epithelial Cells To determine whether glucose acted directly on intestinal epithelial cells to affect barrier function, an in vitro system of cultured intestinal epithelial (Caco-2) cells was used. […] Tight junction integrity was analyzed through automated high-throughput analysis of ZO-1 staining patterns. […] Global reprogramming of the epithelial transcriptome was detected in hyperglycemic mice (FIG. 41), in which more than 1,000 genes were differentially expressed compared to vehicle-treated controls (FIG. 4J). […]

Citrobacter rodentium [1] = assay: Citrobacter rodentium infection (bioluminescence, tissue CFU), Example 1; format: in vivo, mouse
Protocol: (§1) To induce hyperglycemia, streptozotocin (STZ, Sigma-Aldrich) was diluted freshly in PBS and injected i.p. at 100 mg/kg at two consecutive days. Control mice were injected with PBS. Serum glucose measurements were performed using glucose strips (Perrigo). Hyperglycemic mice were used for further experimentation 2-3 weeks after STZ injection). For continuous insulin administration, ALZET osmotic pumps were used. Pumps were implanted subcutaneously in the back of the mice for 4 weeks. Insulin was delivered at 0.25 U/day. 2-deoxyglucose (2-DG) was injected i.p. twice daily at 5 mg per injection as previously described (47). Injections were performed for 10 consecutive days. Leptin antagonist was administered daily by intraperitoneal injection of 25 mg/kg as previously described (18).
Mice were infected by oral gavage with 200 μl of an overnight culture of LB containing approximately 1×10^9 colony-forming units (CFU) of a kanamycin-resistant, luciferase-expressing derivative of C. rodentium DBS100 (ICC180) as previously described (16). For in vivo bioluminescent imaging, mice were anesthetized with Ketamine/Xylazine. Bioluminescence was quantified using an IVIS2000 instrument and Living Image software (Perkin Elmer). For ex vivo luminescence analysis, colons were resected, extensively washed from all fecal matter and immediately imaged. For CFU counts, tissues were collected, weighed and homogenized in 1 ml of sterile PBS. Tissue homogenates were serially diluted in PBS and plated on to LB kanamycin plates, incubated overnight at 37° C., and bacterial colonies were enumerated the following day, normalizing them to the tissue weight.

[2] = tested on: microbial pattern recognition receptor (PRR) ligands; assay: Quantification of microbial products at systemic sites (PRR reporter cell lines); format: in vivo, mouse; conditions: STZ-treated mice given the agent (insulin 0.25 U per day; 2-DG i.p. twice daily 5 mg)
Protocol: as §1, with “(18). The following PRR reporter cell lines were obtained from Invivogen (HEK-Blue TLR and NLR reporter cell lines): TLR2, TLR3, TLR4, TLR5, TLR7, TLR9, NOD1, NOD2. Extracts from spleen, liver, and serum were homogenized and added to reporter cell lines incubated with HEK-Blue detection medium (Invivogen) according to the manufacturer's instructions.” for “(18).”

[3] = tested on: intestinal epithelial cells; assay: RNA-sequencing of purified intestinal epithelial cells; format: in vivo, mouse; conditions: STZ-treated mice, 2-DG administration
Protocol: Intestinal tissue was excised from mice, thoroughly rinsed with ice-cold PBS to clean the tissue from fecal matter, and opened longitudinally. The tissue was then cut into pieces of 1 cm length and incubated in HBSS containing 2 mM EDTA and 1 mM DTT at 37° C. for 30 mins while shaking at 130 rpm. Epithelial cells were collected, filtered, centrifuged, and subsequently stained with anti-EpCAM and anti-CD45 antibodies (Biolegend) for 30 mins on ice. Cells were then washed, resuspended and sorted into lysis/binding buffer (Life Technologies) using a FACS-FUSION cell sorter (BD).
10^4 cells from each population were sorted into 80 μl of lysis/binding buffer (Life Technologies). mRNA was captured with 12 μl of Dynabeads oligo(dT) (Life Technologies), washed, and eluted at 70° C. with 10 μl of 10 mM Tris-Cl (pH 7.5). A derivation of MARS-seq was used as described (51). An average of 1 million reads was sequenced per library (Illumina NextSeq). The reads were aligned to the mouse reference genome (NCBI 37, mm9) using TopHat v2.0.10 (52) with default parameters. Expression levels were calculated and normalized using ESAT software (garberlabdotumassmeddotedu/software/esat). Duplicate reads were filtered if they aligned to the same base and had identical UMIs. […]

[4] = tested on: tight junctions of Caco2 cells; assay: Caco2 tight junction morphology (cingulin or ZO-1 staining, tortuosity); format: cell-based, human
Protocol: (§2) CaCo-2 cells were purchased from ATCC. Cells were routinely grown in regular tissue culture medium (DMEM, 10% FCS, penicillin/streptomycin, GlutaMAX). For experiments with differing glucose concentrations, cells were routinely cultured in low-glucose DMEM (1 g/l glucose). Cells were seeded onto 96-well glass-bottom plates coated with either fibronectin or collagen 70 000 cells/well and allowed to grow for 24 hours to form confluent monolayer before indicated treatments.
(§3) For high resolution images of manually selected representative fields, a DeltaVision wide field fluorescent microscope (GE Healthcare) equipped with 40×UPlanFLN or 60×/1.42 PlanApo N oil objective (Olympus) was used. For multi-well plate scanning, the following automated imaging stations were used: DeltaVision microscope with plate scanning regiment, Hermes imaging station (IDEA bio-Medical) or ImagExpress microXL imaging station (Molecular Devices) equipped by 40× air objectives. In all cases in order to cover the curvature of apical surface of epithelial monolayer 5 μm thick z-stack was acquired around the tight junction plane (identified by best focus algorithm) and resulting image was generated as a maximum projection of all optical sections.
Cell images were segmented using Morphological Segmentation ImageJ plug-in and junction tortuosity was calculated as a ratio between junction length and Euclidian distance between its ends.

[5] = tested on: focal adhesions of Caco2 cells; assay: Caco2 cell-matrix focal adhesions (paxillin staining); format: cell-based, human; conditions: 10 mM acetyl-proline, 1 mM putrescine, 10 mM histamine, 5 mM spermine
Protocol: as §2, §3

[6] = tested on: mice with DSS-induced colitis; conditions: putrescine oral gavage 200 mg/kg twice daily; 2% DSS in drinking water
Protocol: (§4) For putrescine treatment, mice received putrescine by oral gavage with a dose of 200 mg/kg twice daily for 10 days prior to and during DSS treatment or Citrobacter rodentium infection.

Citrobacter rodentium [7] = format: in vivo, mouse; conditions: putrescine oral gavage 200 mg/kg twice daily
Protocol: as §4
A kanamycin-resistant and luciferase-expressing derivative of Citrobacter rodentium DBS100 (ICC180) was used for infection as previously described (Thaiss et al., Science. 2018 Mar. 23; 359(6382):1376-1383).
Mice were infected with 200 μl solution containing approximately 1×10^9 colony-forming units (CFU) of overnight cultured bacteria by oral gavage. Infection was monitored by enumerating stool CFU and measuring abdominal bioluminescent. For in vivo bioluminescent imaging, mice were anesthetized and bioluminescence was measured using an IVIS2000 instrument and Living Image software (Perkin Elmer). For ex vivo luminescence quantification, the whole colons were dissected, extensively washed from all luminal contents, longitudinally cut open and immediately imaged. For CFU counts, stool or tissues were collected, weighed and homogenized in sterile phosphate buffered saline (PBS−/−). Homogenates were then serially diluted in PBS−/− and plated on LB kanamycin plates, incubated overnight at 37° C. Bacterial CFUs were counted the next day, normalizing them to the stool or tissue weight.

SMILES | glucose-induced barrier aberrations in vitro (Caco-2 cells) | detectable pathogen load in the mesenteric lymph nodes, spleens and livers (Citrobacter rodentium [1]; C. rodentium-infected db/db mice, 2-DG treatment) | bacterial growth in the intestinal lumen (Citrobacter rodentium [1]; STZ-treated C. rodentium-infected mice, 2-DG treatment) | enhanced C. rodentium growth and pathogenic translocation / host defense against C. rodentium (Citrobacter rodentium [1]; STZ-treated mice given the agent (insulin 0.25 U per day; 2-DG i.p. twice daily 5 mg)) | systemic dissemination of microbial products [2] | transcriptional reprogramming of the epithelium [3] | recovery of the TJs after washout ([4]; CaCo2 cells pretreated 24 hrs with disruptor, then regular culture medium for 24 hours) | TJ structure after disruptor treatment ([4]; CaCo2 cells, 24 hrs, LPS 300 ng/ml, Histamine 10 mM, putrescine 1 mM) | effect on tight junctions in metabolite screen ([4]; Caco2 cells) | tight junction morphology ([4]; Caco2 cells, 10 mM acetyl-proline, 1 mM putrescine, 10 mM histamine, 5 mM spermine) | focal adhesions size [5] | effect in mice with DSS-induced colitis [6] | effect in mice with C. rodentium infection (Citrobacter rodentium [7])
O=CC[C@@H](O)[C@H](O)[C@H](O)CO [2-DG, 2-deoxyglucose] | rescued glucose-induced barrier aberrations in vitro in a dose-dependent manner | strongly reduced | unaffected | restored host defense against C. rodentium | prevented the systemic dissemination of microbial products | blocked transcriptional reprogramming in STZ-treated mice |  |  |  |  |  |  | 
NCCCCN [putrescine] |  |  |  |  |  |  | partial recovery | pronounced TJ disruption | Disruption | distortion of tight junction morphology | increase of focal adhesions size | disruptive effect | disruptive effect
